According to article PMC12175907 (Science Advances, 2025):

How the values were obtained:
shrews [1] = experiment: emesis, semaglutide dose-response, shrews; type: in vivo, Suncus murinus; settings: for animals exhibiting emesis / emesis, dose dependence: 120 min; for animals exhibiting emesis: n = 9; for latency to first emetic episode: average of shrews that exhibited emesis, ± SEM; for emesis, dose dependence: 10, 50, 100 and 500 nmol/kg ip
Description: (§1) Adult male shrews (S. murinus) weighing ~50 to 80 g (n = 84 total) were bred and maintained in the De Jonghe Lab (University of Pennsylvania). These animals were offspring from a colony previously maintained at the University of Pittsburgh Cancer Institute (C. Horn); a Taiwanese strain was derived from stock originally supplied by the Chinese University of Hong Kong. Shrews were singly housed in plastic cages (37.3 cm by 23.4 cm by 14 cm, Innovive) under a 12-hour/12-hour light/dark cycle in a temperature-controlled and humidity-controlled environment. Animal were fed ad libitum with a mixture of feline (75%, Laboratory Feline Diet 5003, Lab Diet) and mink food (25%, High Density Ferret Diet 5LI4, Lab Diet) and had ad libitum access to tap water except where noted.
To assess the emetogenic effects of semaglutide treatment, shrews (n = 9) were habituated to intraperitoneal injections and to clear plastic observation chambers (23.5 cm by 15.25 cm by 17.8 cm) for two consecutive days prior to experimentation. The animals were injected intraperitoneally with semaglutide (10, 50, 100, and 500 nmol/kg) or vehicle and then video recorded (Vixia HF-R62, Canon) for 120 min. After 120 min, the animals were returned to their cages. Treatment rounds were conducted within-subject and separated by 7 days. Analysis of emetic episodes was measured by a trained observer blinded to treatment groups. Emetic episodes were characterized by strong rhythmic abdominal contractions associated with either oral expulsion from the GI tract (i.e., vomiting) or without the passage of materials (i.e., retching). Latency to the first emetic episode, the total number of emetic episodes, and the number of emetic episodes per minute were quantified.

shrews [2] = experiment: food intake and body weight, semaglutide dose-response, shrews; type: in vivo, Suncus murinus; settings: 10, 50, 100 and 500 nmol/kg ip, n = 8 per group (legend)
Description: as §1
We evaluated the effects on food intake and body weight of different doses of semaglutide. Food was removed 2 hours prior to dark onset. Shortly before dark onset, shrews (n = 9, ~59 ± 2 g) received intraperitoneal injection of semaglutide (10, 50, 100, and 500 nmol/kg) or vehicle. Shrews had ad libitum access to powdered food through a circular (3 cm in diameter) hole in the cage. Food intake was evaluated using our custom-made “feedometers,” consisting of a standard plexiglass rodent housing cage (29 cm by 19 cm by 12.7 cm) with mounted food hoppers resting on a plexiglass cup (to account for spillage). Food intake was manually measured at 6, 24, 48, and 72 hours postinjection. Body weight was taken at 0, 24, 48, and 72 hours. Treatments occurred in a within-subject, counterbalanced design and were 7 days apart.

DIO GIPR KO mice = experiment: body composition (ECHO MRI), DIO GIPR KO mice; type: in vivo, mouse; settings: 16 days daily sc, GIP-085 300 nmol/kg, semaglutide 3 nmol/kg, mean ± SEM, n=6 per group
Description: (§2) C57BL/6 wild-type (n = 23), GLP-1R KO (n = 24), and GIPR KO mice (n = 24) received daily subcutaneous administration of GIP-085 (300 nmol/kg), semaglutide (3 nmol/kg), GIP-085/semaglutide combo, or vehicle for 16 days. Food intake and body weight were manually measured daily. The average body weight at the start of the experiment was 43.7 ± 0.4 g for the wild-type group, 39.0 ± 0.6 g for the GLP-1R KO group, and 36.5 ± 0.4 g for the GIPR KO group. Body composition of mice was determined using quantitative nuclear magnetic resonance analysis (ECHO MRI, 3-1 Composition Analyzer; Echo Medical Systems). At the end of the experiment, the animals were euthanized by CO2.

GLP-1R KO DIO mice = experiment: body composition (ECHO MRI), GLP-1R KO DIO mice; type: in vivo, mouse; settings: n=6 per group
Description: as §2

DIO GLP-1R KO mice = experiment: chronic treatment, food intake and body weight, DIO GLP-1R KO mice; type: in vivo, mouse; settings: GIP-085 300 nmol/kg, semaglutide 3 nmol/kg or combo, sc daily, 16 days; n = 6 per group
Description: DIO adult male C57BL/6 mice (Taconic) C57BL/6 (n = 23, weighing ~43 g at arrival), GLP-1R KO (germline knockout line: 11549, n = 24, weighing ~38 g at arrival), and GIPR KO mice (germline knockout line: 2886, n = 24, weighing ~35 g at arrival) were used. Upon arrival, mice were individually housed and continued to be fed ad libitum on high-fat/high-sugar diet (60% fat diet, 12492, Research Diets).
GIPFA-085 (GIP-085), tirzepatide, and GLP-140 were designed and produced by Eli Lilly and Company. GIP-085, GLP-140, and semaglutide (Cayman Chemical) were dissolved in 40 mM tris-HCl buffer (pH 8) and 0.02% Tween 80. For the study in mice, all drugs were injected subcutaneously at a volume of 5 ml/kg of body weight. In rats, all drugs were injected intraperitoneally, at a volume of 1 ml/kg of body weight, except when noted. In shrews, all drugs were injected intraperitoneally at a volume of 10 ml/kg of body weight.
C57BL/6 wild-type (n = 23), GLP-1R KO (n = 24), and GIPR KO mice (n = 24) received daily subcutaneous administration of GIP-085 (300 nmol/kg), semaglutide (3 nmol/kg), GIP-085/semaglutide combo, or vehicle for 16 days. Food intake and body weight were manually measured daily. […] Body composition of mice was determined using quantitative nuclear magnetic resonance analysis (ECHO MRI, 3-1 Composition Analyzer; Echo Medical Systems). […]

[3] = tested on: adults with overweight or obesity; set-up: method as in 2 sources, ref 4 = [4]; PMID 33567185; doi:10.1056/NEJMoa2032183; 4 J. P. H. Wilding , R. L. Batterham , S. Calanna , M. Davies , L. F. Van Gaal , I. Lingvay , B. M. McGowan , J. Rosenstock , M. T. D. Tran , T. A. Wadden , S. Wharton , K. Yokote , N. Zeuthen , R. F. ||| ref 6 = [6]; PMID 34514682; doi:10.1111/dom.14551; 6 S. Wharton , S. Calanna , M. Davies , D. Dicker , B. Goldman , I. Lingvay , O. Mosenzon , D. M. Rubino , M. Thomsen , T. A. Wadden , S. D. Pedersen , Gastrointestinal tolerability of once-weekly sem; settings: cited from earlier work

semaglutide
animals exhibiting emesis (shrews [1]; 100 nmol/kg ip): Twenty-two
latency to first emetic episode (shrews [1]; 100 nmol/kg ip): 63 ± 14 min
animals exhibiting emesis (shrews [1]; 500 nmol/kg ip): 67%
latency to first emetic episode (shrews [1]; 500 nmol/kg ip): 58 ± 6 min
emesis, dose dependence (shrews [1]): dose-dependently induced emesis
emesis, dose dependence (shrews [1]; listed as Semaglutide): causes emesis in a dose-related manner
body weight loss (shrews [2]): significant body weight loss up to 72 hours after the highest dose tested
food intake (anorexia) (shrews [2]): causes anorexia in a dose-dependent manner
body weight loss (shrews [2]; listed as Semaglutide): dose-dependently induces body weight loss
total fat mass at the end of the experiment (DIO GIPR KO mice; Veh: 14.2±0.6g): 8.1 ± 0.6 g
total lean mass at the end of the experiment (DIO GIPR KO mice; Veh: 22.3±0.5g): 20.9 ± 0.3 g
total fat mass at the end of the experiment (GLP-1R KO DIO mice; 16 days daily sc, GIP-085 300 nmol/kg, semaglutide 3 nmol/kg, mean ± SEM, Veh: 17.3±0.8g): 15.5 ± 0.9 g
total lean mass at the end of the experiment (GLP-1R KO DIO mice; 16 days daily sc, GIP-085 300 nmol/kg, semaglutide 3 nmol/kg, mean ± SEM, Veh: 24.1±0.6g): 23.9 ± 0.7 g
body composition changes (GLP-1R KO DIO mice; semaglutide 3 nmol/kg and dual semaglutide/GIP-085, 16 days): No changes
anorectic effects / food intake (DIO GLP-1R KO mice): absent
body weight (DIO GLP-1R KO mice): absent
patients reporting nausea ([3]; STEP 1): 44.2%
patients reporting vomiting ([3]; STEP 1): 24.8%
weight loss ([3]; people with overweight/obesity without type 2 diabetes): double-digit weight loss
participants with dose reduction or temporary treatment interruption (GI side effects) ([3]; pooled STEP 1-3 trials): ~ 12.5%
permanent treatment discontinuation (GI side effects) ([3]; pooled STEP 1-3 trials): ~ 4.3%
